Source: ChEMBL document CHEMBL3507680, “University of Dundee, Gates Library screen for HepG2 cell viability”

Experiment: Human HepG2 cell viability assay in 384 well format
Type: toxicity, cell-based
Design: dose 125 nL, time 70.5 hour; concentration not given beside the values
Conditions: HepG2 cells, read-out: Inhibition

SMILES | cytotoxicity at 70.5 h
Cc1nc(CN(C)S(=O)(=O)c2ccc(F)cc2Br)no1 | 14.6%
NS(=O)(=O)CCN1CCOC(c2ccsc2)C1 (stereo not drawn) | 1.05%
Cc1cc(CN2C[C@@H](C)[C@@]3(CCN(CC(=O)N(C)C)C3=O)C2)oc1C | -4.41%
Cc1c(CN2CCCC(C(=O)c3ccc(C(C)(C)C)cc3)C2)cnn1C (stereo not drawn) | -4.49%
CCOc1ccc(C(=O)N2CCCC(c3nccn3C)C2)cc1OCC (stereo not drawn) | -5.34%
Cc1csc(C2CCCCN2C(=O)CN(C)C(C)C)n1 (stereo not drawn) | 25.2%
Cn1cc(CN2CCc3ccc(=O)n(CC4CC4)c3CC2)cn1 | 4.08%
COc1cccc(NC(=O)CNc2ccc(C(=O)N(C)C)c(Cl)c2)c1 | -4.79%
CN(Cc1ccccc1)C(=O)CN1CCCCC1Cn1cncn1 (stereo not drawn) | 1.47%
COCCO[C@H]1CCN(C(=O)NC2CC2)[C@H]1Cc1cnn(C)c1 | -123%
Cn1cc(CN(CC2(O)CCNC2)C2CCCCC2)cn1 (stereo not drawn) | 5.59%
CN1CC(=O)N(c2cccc(F)c2)CC12CCN(Cc1ccco1)C2 (stereo not drawn) | -5.08%
CCc1ccc(C(=O)O)cc1S(=O)(=O)Nc1ccc2c(c1)OCCO2 | 4.02%
O=C(Nc1cccc(OC(F)F)c1)C1CN(S(=O)(=O)C2CC2)C1 | 0.345%
Cn1nc(C(C)(C)C)cc1NC(=O)Cn1ccccc1=O | -12%
CS(=O)(=O)N1CCN(C(=O)c2cccc(Cl)c2)CC2(CNC(=O)C2)C1 (stereo not drawn) | -0.473%
CCc1nnsc1C(=O)N1CCCN(Cc2cnn(C)c2)CC1 | -27.3%
Cc1ccc(-c2nc(CSCCC(=O)NC(N)=O)co2)c(C)c1 | 22%
Cn1nc(C(=O)N2CCOCC2)cc1C(=O)Nc1ncc(Cl)cc1Cl | 14.9%
Cc1cc(NC(=O)c2nc(N3CCCC3)ncc2Cl)ccc1Br | -5.96%
CC(NC(=O)NCCCOC1CCCCC1)c1nncn1C (stereo not drawn) | -6.4%
Nc1cc2c(nn1)CCN(C(=O)c1ccc(Oc3cccnc3)cc1)C2 | -9.26%
CCc1ccccc1CN1CCN(Cc2ncc[nH]2)[C@H]2CS(=O)(=O)C[C@H]21 | -3.46%

SMILES | cytotoxicity at 70.5 h
O=S1(=O)C[C@@H]2[C@H](C1)N(Cc1cccc(O)c1)CCN2CC1CC1 | -5.99%
COc1ncccc1C(=O)N1CCC2(CC1)CC(OC)CO2 (stereo not drawn) | -6.77%
CS(=O)(=O)N1CCC(NC(=O)COc2ccc(Cl)cc2)CC1 | -4.42%
Cc1cc(C)n(C2CN(c3ncnc4c3CCC4)C2)n1 | -10.3%
c1ccc(COC2CCN(Cc3cc4n(n3)CCCNC4)CC2)nc1 | -18%
Cc1ccc(N2CCCC(NCCCS(C)(=O)=O)C2)nn1 (stereo not drawn) | -7.73%
Cc1nnc(C2CCN(C(=O)c3ccc4nccnc4c3)CC2)s1 | -8.52%
Cc1noc(C)c1CN1C[C@@H](NC(=O)N(C)C)[C@H](C(C)C)C1 | -6.75%
Cc1ccc(CN(C)C(=O)CN2CCOC(Cn3cncn3)C2)o1 (stereo not drawn) | 9.12%
O=C(CN1CCCC1Cn1cncn1)Nc1ccc(Cl)cn1 (stereo not drawn) | -3.38%
CCN(CC)c1ccc(C(=O)N2CCCC(n3cncn3)C2)cn1 (stereo not drawn) | -4.12%
N#CCCNC(=O)CN1CCC(c2cc3ccccc3[nH]2)CC1 | -10.1%
COC(=O)c1ccc(N2CCC(C(O)c3ccccc3)CC2)nn1 (stereo not drawn) | -4.29%
Cc1ccc(CNC(C)c2ccc(N3CCN(C)CC3)c(F)c2)o1 (stereo not drawn) | 0.0517%
COc1ccc(CNc2nc(N3CCOCC3)ns2)cc1 | -10.7%
O=C(NCC(O)c1cccs1)c1sccc1OC(F)F (stereo not drawn) | -3.63%
Cc1noc(C)c1CNCc1c(C(C)C)nn(C)c1N1CCOCC1 | -10.5%
CN1CCN(C(=O)c2cc(-c3cnc(N4CCCC4)nc3)cn2C)CC1 | -21.9%
C[C@H](NC(=O)N1CCN(c2ccc(Cl)cc2)CC1)C(=O)N1CCSCC1 | -14.7%
CC(C)NC(=O)N1CCC2(CCCO2)C1 (stereo not drawn) | 14.2%
Cc1nc(C2CCCN(S(C)(=O)=O)C2)sc1Br (stereo not drawn) | -0.507%
c1ccc(Cc2nc(CN3CCCC3Cn3cncn3)cs2)cc1 (stereo not drawn) | -7.1%
Cc1nc[nH]c1CN1CCCC12CCN(c1nc3ccccc3s1)CC2 | -1.37%

SMILES | cytotoxicity at 70.5 h
CCC1CN(C(=O)Cc2coc(-c3ccccc3)n2)CCO1 (stereo not drawn) | -3.32%
c1ccc2c(c1)CC(N1CCCC(NCc3ccc4nonc4c3)C1)C2 (stereo not drawn) | -17.7%
CN1C(=O)CC(c2ccccc2)C12CCN(CC1CCOCC1)CC2 (stereo not drawn) | -6.6%
CC(C)(C)c1noc(CN2CCCCC2Cn2cncn2)n1 (stereo not drawn) | -0.0275%
CCOc1ccc(C2CCCN2Cc2nnnn2C2CC2)cc1 (stereo not drawn) | 0.0309%
NCCC(=O)N1CCC2(CC1)CN(C(=O)c1ccc(Cl)cc1)CCO2 | -12.1%
Cc1cnn(C2CN(CC(=O)NCCc3c[nH]c4ccccc34)C2)c1 | -9.92%
N#Cc1ccc(CN2CCN(c3cncc(Cl)n3)CC2=O)cc1 | -4.86%
Cc1cc(NC(=O)N2CCN(C)CC2C)n(C(C)(C)C)n1 (stereo not drawn) | -9.8%
Cc1noc(CC2CCN(Cc3ccc(CCC(C)(C)O)cc3)CC2)n1 | -10.5%
COC(=O)CCNC(=O)c1nnn(-c2ccc(F)cc2)c1C1CC1 | -10.2%
CCN(Cc1nonc1C)C(=O)Cn1nc(C(F)(F)F)cc1C | -9.27%
CN(C)C(=O)N1CCC(C2C(=O)Nc3ccccc32)CC1 (stereo not drawn) | -10.4%
COc1cc(N2CCC[C@]3(C(=O)O)CN(C(C)C)C[C@@H]3C2)ncn1 | -3.84%
CCc1nnc2n1CC(CNc1cnc3ccccc3n1)CC2 (stereo not drawn) | 1.47%
Cc1cc(CN2CCc3nn(C(C)C)c(=O)cc3C2)no1 | 5.97%
O=C1CCCN1Cc1nnc2n1CCN(Cc1ccccn1)CC2 | -7.47%
c1ccn(Cc2nnc3n2CCCN(c2cnccn2)C3)c1 | 16%
CCC(C)N(Cc1cc(C)n[nH]1)Cc1ccccc1Cl (stereo not drawn) | -10.8%
Cc1ccc(-c2ccnc(NC(C)c3c(C)n[nH]c3C)n2)c(C)n1 (stereo not drawn) | -8.64%
Cc1nc(C)n(CC2CCCN2Cc2nc(-c3ccco3)no2)n1 (stereo not drawn) | -4.04%
COc1ccc(N(c2ccc(C)cc2)c2ccc(C(=O)O)s2)cc1 | -0.995%
O=C(c1cc(C2CC2)on1)N1C[C@@H]2COC[C@]2(COc2cccnc2)C1 | -4%

SMILES | cytotoxicity at 70.5 h
Cc1cc2[nH]c(CN3CCOC(C(F)(F)F)C3)cc(=O)n2n1 (stereo not drawn) | 17.8%
COc1cccc([C@@H]2CCN(Cc3ccc4ccccc4n3)C[C@H]2O)c1 | -8.06%
CN1C(=O)CC(C(=O)O)C12CCN(c1ccc3cccc(Cl)c3n1)CC2 (stereo not drawn) | -4.5%
CC(C)NC(=O)N1CCN(C(=O)NC(C)C)CC2(CNC(=O)C2)C1 | 2.71%
O=C1OCCN1Cc1cc(C(F)(F)F)ccc1F | -7.38%
CS(=O)(=O)NC1CCN(CCOCc2ccccc2)CC1 | -6.45%
CN(C)C(CNC(=O)NCc1cc[nH]n1)c1ccco1 (stereo not drawn) | 0.0309%
Cc1nc(CN(C)C2CCN(Cc3nc4ccccc4s3)C2)no1 (stereo not drawn) | -8.96%
c1nc2c(c(-c3ccsc3)n1)CCN(Cc1ccoc1)CC2 | 19.3%
COc1cc(C)cc(C(C(=O)O)N2CCN(C3CCCC3)CC2)c1OC (stereo not drawn) | -2.66%
CN(C)CCOCC1CN(CCN(C)C)Cc2ccnn2C1 (stereo not drawn) | -10.7%
Cc1ccc(CN2CCN(C(=O)CCc3nc(Cl)n[nH]3)CC2=O)cc1 | -14.2%
CCCOc1ccc(CC2=NC(C)(CO)CO2)cc1 (stereo not drawn) | 12%
Cc1ccnn1CCC(=O)N1C[C@H]2CC[C@@H]1CN(CC(=O)N(C)C)C2 | -0.432%
Cc1cnn(CC2CCCCN2Cc2cc(C)no2)c1 (stereo not drawn) | -8.3%
Cc1cc(C)n(C2CN(CCc3ccccn3)C2)n1 | -11.1%
CCNC(=O)NCC1(CN2CCOCC2)CCCCC1 | 0.842%
CN1CCC(C2CCN(Cc3cccc(-n4cccn4)c3)CC2)C1 (stereo not drawn) | 2.02%
CCCC(Nc1c(C#N)c(=O)n(C)c(=O)n1C)c1ccc(F)cc1F (stereo not drawn) | 9.48%
c1cnnc(N2CCCC2CNCc2cc[nH]n2)c1 (stereo not drawn) | 11%
CCN(CC)C(=O)CNC(=O)N1CCC(c2ccccc2)C1 (stereo not drawn) | -6.54%
O=C(Cc1cccnc1)N1C[C@H]2CC[C@@H]1CN(Cc1ccc(F)cc1)C2 | 9.62%
CN(C)c1ncnc2c1CCN(C(=O)CN1CCCCC1)C2 | -7.37%

SMILES | cytotoxicity at 70.5 h
NC(=O)C1CN(c2ccc(Br)cn2)CCO1 (stereo not drawn) | -26.8%
Cc1nonc1C1CCCN1C(=O)c1cc2n(n1)CCCN(C(C)C)C2 (stereo not drawn) | -6.2%
CC(=O)NCC1CCN(C(=O)NCCc2ccc(Cl)s2)CC1 | -6.89%
CNC(=O)[C@@H]1CN(Cc2ccccc2)C[C@H]1C(=O)c1ccc(F)cc1 | -1.84%
CC(C)CN1CCC(c2nc3ccc(NC(C)C)cn3n2)CC1 | -13.1%
CCS(=O)(=O)N(C)CCCNCc1c(C)nn(C)c1N(C)C | -2.24%
O=S(=O)(C1CC1)N1CCC2(CC1)COC(COc1cccnc1)C2 (stereo not drawn) | -10.2%
CC(=O)NCCC1CCCCN1S(=O)(=O)c1cccc(C#N)c1 (stereo not drawn) | -2.49%
O=C(NCCNc1ncccn1)C1CC(=O)N(Cc2ccccc2)C1 (stereo not drawn) | -8.64%
Cc1ccc(F)c(NC(=O)CCC(=O)N(C)Cc2nc(C)c[nH]2)c1 | -5.55%
Cc1ccccc1-n1cc(-c2ccnc(N3CCCC(O)C3)n2)cn1 (stereo not drawn) | -3.81%
Cc1noc([C@H]2C[C@@H]3CCN(C(=O)C4CCOCC4)C[C@H]3O2)n1 | -1.73%
CC(C)c1nc2c(n1C)CCN(Cc1nc(-c3cccnc3)no1)C2 | -11.9%
c1cnn(CC2CCCN2c2ncnc3sccc23)c1 (stereo not drawn) | 31.2%
Cn1cnc2c(-c3ccccc3)nc(C3CCNCC3)cc21 | 13.6%
O=c1c2cccnc2cnn1CC(O)c1cccc(Cl)c1 (stereo not drawn) | 13.3%
N#Cc1cnc(NC2CCN(C(=O)C3CC3)CC2)c(Cl)c1 | 0.703%
Cn1ccc(CN2CCC(CC(=O)NC3CCCC3)CC2)cc1=O | 15%
O=C(NCc1cncc2c1CCN(Cc1ccoc1)C2)C1CC1 | -0.887%
Cc1ncsc1CNC(=O)N1CCN(Cc2ccccc2)CC1C (stereo not drawn) | -9.74%
Cc1cnc(N2CCC3(CC2)CC(N(C)Cc2ccncc2)C3)nc1 | -5.66%
